Experimental data taken from paper PMC8154258, “Multivalent Presentations of Glycomimetic Inhibitor of the Adhesion of Fungal Pathogen Candida albicans to Human Buccal Epithelial Cells” (Bioconjugate Chemistry, 2021).

Tested on: C. albicans biofilm formation
Test: Biofilm assay (crystal violet, 96-well plate)
Type: cell-based, Candida albicans
Experimental: C. albicans (MEN, serotype B, clinical isolate from a corneal infection) was maintained on sabouraud dextrose agar, and cultures were grow to the stationary phase ((1–2) × 10^8 cells/mL) overnight in YEPD broth (1% (w/v) yeast extract, 2% (w/v) bacteriological peptone, 2% (w/v) glucose) at 30 °C, and 200 rpm. Stationary phase yeast cells were harvested, washed with PBS, and resuspended at a density of 1 × 10^8 cells/mL in PBS.
C. albicans cells were washed twice with PBS and enumerated before being resuspended in RPMI to give a cell density of (2 × 10^7 cells/mL). Compounds were resuspended in PBS to give a concentration of 2 mg/mL. The compounds (250 μL) were mixed with RPMI (250 μL) in a 1:1 ratio to give a concentration of 1 mg/mL. PBS (250 μL) was mixed with RPMI (250 μL).
C. albicans cells (500 μL, 2 × 10^7 cells/mL) were incubated with compounds (1 mg/mL) in a 1:1 ratio to give a final cell density to concentration ratio of […]. The suspension was incubated for 3 h at rt and mixed by vortex every 20 min to prevent cells from falling out of solution. Cell suspension (100 μL) was added to wells of a 96-well flat bottom plate. The plate was incubated at 37 °C for 24 h. […] The plate was read at 550 nm in a 96-well plate reader. The percentage reduction in biofilm was calculated by dividing the absorbance value of the treated cells into that of the control.

O=C[C@H](O)[C@@H](O)[C@@H](O)[C@H](O)CO [D-galactose]
% Change in biofilm formation (Figure 4, relative to PBS control, compound 1 mg/mL mixed 1:1 with cells, 24 h at 37 °C, crystal violet, 550 nm, error: standard deviation): 114% | effect on biofilm formation (in words) (biofilm growing conditions, positive control): promoted the formation of the biofilm
